Legend:
[1] = In vitro cytotoxicity, fluorescent Resazurin assay, HL60; conditions: human, HL60 (HL-60) promyelocytic leukemia cells, In vitro cytotoxicity [IC50, μM] HL60, HL60 cells, 72 h incubation, 1–30 μM, mean ± standard deviation
Description: (§1) The in vitro cytotoxicity of the several synthesized compounds was also investigated. […] During the measurements, the fluorescent Resazurin assay as described previously was applied.[19]
(§2) Cells were purchased from the American Type Culture Collection (ATCC, Manassas, Virginia, USA). Human lung adenocarcinoma A549 cells were maintained in Dulbecco’s modified Eagle’s medium (DMEM), while mouse fibroblast NIH/3T3 and human promyelocytic leukemia HL-60 cells were maintained in Roswell Park Memorial Institute 1640 medium (RPMI-1640) containing 10% FCS. Media were supplemented with 2 mM GlutaMAX, 100 U/mL penicillin, and 100 μg/mL streptomycin (Life Technologies, Carlsbad, California, USA). Cell cultures were maintained at 37 °C in a humidified incubator in an atmosphere of 5% CO2 (Sanyo, Japan).
(§3) Cytotoxicity of the synthesized molecules was determined on A549, NIH/3T3, and HL-60 cells using the fluorescent Resazurin assay as described previously.[19]
(§4) Briefly, cells (A549 and NIH/3T3: 6000, HL-60: 120.000 cells/well) were seeded into 96-well plates (Corning Life Sciences) in media and incubated overnight. Test compounds were dissolved in 3-fold amounts of dimethyl sulfoxide (DMSO). Cells were treated with an increasing concentration of test compounds (1–30 μM). […] Cell viability was determined after 72 h incubation. Resazurin reagent (Sigma-Aldrich) was added at a final concentration of 25 μg/mL. After a 2 h incubation for at 37 °C, 5% CO2, fluorescence (530 nm excitation/580 nm emission) was recorded on a multimode microplate reader (Cytofluor4000, PerSeptive Biosytems). Viability was calculated with relation to untreated control cells and blank wells containing media without cells.

[2] = In vitro cytotoxicity, fluorescent Resazurin assay, A549; type: cell-based; conditions: human, A549 lung adenocarcinoma cells, 72 h incubation, 1–30 μM, mean ± standard deviation
[3] = In vitro cytotoxicity, fluorescent Resazurin assay, NIH/3T3; conditions: mouse, NIH/3T3 fibroblast cells
Description: as §1, §2, §3, §4

[4] = system: human promyelocytic leukemia (HL60) cell line; test: In vitro cytotoxicity, fluorescent Resazurin assay, HL60; conditions: read-out: In vitro cytotoxicity [IC50, μM] HL60, HL60 cells, 72 h incubation, 1–30 μM, mean ± standard deviation
Description: as §1, §2, §3, §4

melting point	SMILES	IC50 at 72 h [1]	IC50 at 72 h [2]	IC50 at 72 h [3]	IC50 [4]
187 to 188 °C	CCCCNC(c1coc2ccc(C)cc2c1=O)P(=O)(c1ccccc1)c1ccccc1 (stereo not shown) [1a, 3-[(Butylamino)(diphenylphosphoryl)methyl]-6-methyl-4H-chromen-4-one]	–	–	–	–
239 to 240 °C	Cc1ccc2occ(C(Nc3ccccc3)P(=O)(c3ccccc3)c3ccccc3)c(=O)c2c1 (stereo not shown) [1b, 3-[(Phenylamino)(diphenylphosphoryl)methyl]-6-methyl-4H-chromen-4-one]	–	–	–	–
224 to 225 °C	COc1ccc(NC(c2coc3ccc(C)cc3c2=O)P(=O)(c2ccccc2)c2ccccc2)cc1 (stereo not shown) [1c, 3-[(4-Methoxyphenylamino)(diphenylphosphoryl)methyl]-6-methyl-4H-chromen-4-one]	–	–	–	–
235 to 236 °C	Cc1ccc2occ(C(Nc3ccc(Cl)cc3)P(=O)(c3ccccc3)c3ccccc3)c(=O)c2c1 (stereo not shown) [1d, 3-[(4-Chlorophenylamino)(diphenylphosphoryl)methyl]-6-methyl-4H-chromen-4-one]	–	–	–	–
192 to 193 °C	CCCCN/C=C1/C(=O)c2cc(C)ccc2OC1P(=O)(c1ccccc1)c1ccccc1 (stereo not shown) [2a, (Z)-3-[(Butylamino)methylene]-2-(diphenylphosphoryl)-6-methylchroman-4-one]	–	–	–	–
243 to 244 °C	Cc1ccc2c(c1)C(=O)/C(=C/Nc1ccccc1)C(P(=O)(c1ccccc1)c1ccccc1)O2 (stereo not shown) [2b, (Z)-3-[(Phenylamino)methylene]-2-(diphenylphosphoryl)-6-methylchroman-4-one]	–	–	–	–
198 to 199 °C	Cc1ccc2c(c1)C(=O)/C(=C/NC1CCCCC1)C(P(=O)(c1ccccc1)c1ccccc1)O2 (stereo not shown) [2c, (Z)-3-[(Cyclohexylamino)methylene]-2-(diphenylphosphoryl)-6-methylchroman-4-one]	–	–	–	–
196 to 197 °C	Cc1ccc2c(c1)C(=O)/C(=C/NCc1ccccc1)C(P(=O)(c1ccccc1)c1ccccc1)O2 (stereo not shown) [2d, (Z)-3-[(Benzylamino)methylene]-2-(diphenylphosphoryl)-6-methylchroman-4-one]	–	–	–	–
182 to 183 °C	Cc1ccc2c(c1)C(=O)/C(=C/NC(c1ccccc1)c1ccccc1)C(P(=O)(c1ccccc1)c1ccccc1)O2 (stereo not shown) [2e, (Z)-3-[(Benzhydrylamino)methylene]-2-(diphenylphosphoryl)-6-methylchroman-4-one]	9.91 ± 1.28 µM	> 30 µM	> 30 µM	–
176 to 177 °C	Cc1ccc2c(c1)C(=O)/C(=C/NCCCO)C(P(=O)(c1ccccc1)c1ccccc1)O2 (stereo not shown) [2f, (Z)-3-[(Propanolamino)methylene]-2-(diphenylphosphoryl)-6-methylchroman-4-one]	27.4 ± 1.13 µM	> 30 µM	> 30 µM	–
181 to 182 °C	Cc1ccc2c(c1)C(=O)/C(=C/NCCO)C(P(=O)(c1ccccc1)c1ccccc1)O2 (stereo not shown) [2g, (Z)-3-[(Ethanolamino)methylene]-2-(diphenylphosphoryl)-6-methylchroman-4-one]	> 30 µM	> 30 µM	20.7 ± 1.02 µM	–
186 to 187 °C	CCCCN/C=C1/C(=O)c2cc(C)ccc2OC1P(=O)(c1ccc(C)cc1)c1ccc(C)cc1 (stereo not shown) [7a, (Z)-3-[(Butylamino)methylene]-2-(di-p-tolylphosphoryl)-6-methylchroman-4-one]	–	–	–	–
205 to 206 °C	Cc1ccc(P(=O)(c2ccc(C)cc2)C2Oc3ccc(C)cc3C(=O)/C2=C/NC2CCCCC2)cc1 (stereo not shown) [7b, (Z)-3-[(Cyclohexylamino)methylene]-2-(di-p-tolylphosphoryl)-6-methylchroman-4-one]	–	–	–	–
198 to 199 °C	Cc1ccc(P(=O)(c2ccc(C)cc2)C2Oc3ccc(C)cc3C(=O)/C2=C/NCc2ccccc2)cc1 (stereo not shown) [7c, (Z)-3-[(Benzylamino)methylene]-2-(di-p-tolylphosphoryl)-6-methylchroman-4-one]	–	–	–	–
145 to 146 °C	CCCCN/C=C1/C(=O)c2cc(C)ccc2OC1P(=O)(c1cc(C)cc(C)c1)c1cc(C)cc(C)c1 (stereo not shown) [8a, (Z)-2-[Bis(3,5-dimethylphenyl)phosphoryl]-3-[(butylamino)methylene]-6-methyl-chroman-4-one]	~15 µM	> 30 µM	> 30 µM	14.8 ± 1.13 µM
155 to 156 °C	Cc1cc(C)cc(P(=O)(c2cc(C)cc(C)c2)C2Oc3ccc(C)cc3C(=O)/C2=C/NC2CCCCC2)c1 (stereo not shown) [8c, (Z)-2-[Bis(3,5-dimethylphenyl)phosphoryl]-3-[(cyclohexylamino)methylene]-6-methylchroman-4-one]	~15 µM	> 30 µM	> 30 µM	–
–	Cc1cc(C)cc(P(=O)(c2cc(C)cc(C)c2)C2Oc3ccc(C)cc3C(=O)/C2=C/NCc2ccccc2)c1 (stereo not shown) [8d, (Z)-3-[(benzylamino)methylene]-2-[bis(3,5-dimethylphenyl)phosphoryl]-6-methylchroman-4-one]	~15 µM	18.5 ± 1.08 µM	14.2 ± 1.12 µM	13.2 ± 1.32 µM
192 to 193 °C	CCCCN/C=C1/C(=O)c2cc(C)ccc2OC1P(=O)(c1ccc2ccccc2c1)c1ccc2ccccc2c1 (stereo not shown) [9a, (Z)-3-[(Butylamino)methylene]-2-[di(naphthalen-2-yl)phosphoryl]-6-methylchroman-4-one]	–	–	–	–
171 to 172 °C	Cc1ccc2c(c1)C(=O)/C(=C/NC1CCCCC1)C(P(=O)(c1ccc3ccccc3c1)c1ccc3ccccc3c1)O2 (stereo not shown) [9b, (Z)-3-[(Cyclohexylamino)methylene]-2-[di(naphthalen-2-yl)phosphoryl]-6-methylchroman-4-one]	–	–	–	–
–	CC(C)C[C@H](NC(=O)[C@H](Cc1ccccc1)NC(=O)c1cnccn1)B(O)O [bortezomib, reference compound]	0.00742 µM	–	–	–
190 to 192 °C	Cc1ccc2occ(C(O)P(=O)(c3ccccc3)c3ccccc3)c(=O)c2c1 (stereo not shown) [compound 3, 3-[(Diphenylphosphoryl)(hydroxy)methyl]-6-methyl-4H-chromen-4-one]	–	–	–	–
245 to 246 °C	Cc1ccc(P(=O)(c2ccc(C)cc2)C(Nc2ccccc2)c2coc3ccc(C)cc3c2=O)cc1 (stereo not shown) [compound 4, 3-[(Phenylamino)(di-p-tolylphosphoryl)methyl]-6-methyl-4H-chromen-4-one]	–	–	–	–
229 to 230 °C	Cc1cc(C)cc(P(=O)(c2cc(C)cc(C)c2)C(Nc2ccccc2)c2coc3ccc(C)cc3c2=O)c1 (stereo not shown) [compound 5, 3-{(Phenylamino)[bis(3,5-dimethylphenyl)phosphoryl]methyl}-6-methyl-4H-chromen-4-one]	–	–	–	–
223 to 224 °C	Cc1ccc2occ(C(Nc3ccccc3)P(=O)(c3ccc4ccccc4c3)c3ccc4ccccc4c3)c(=O)c2c1 (stereo not shown) [compound 6, 3-{(Phenylamino)[di(naphthalen-2-yl)phosphoryl]methyl}-6-methyl-4H-chromen-4-one]	–	–	–	–
